In one assay the target is D(3) dopamine receptor (Homo sapiens, UniProt P35462). Nature of the assay: Competitive Binding Assays.
The next assay deals with D(2) dopamine receptor (Homo sapiens, UniProt P14416). Nature of the assay: Competitive Binding Assays.
For assay [1], the target named is T1, D(1A) dopamine receptor (Homo sapiens, UniProt P21728). Nature of the assay: Competitive Binding Assays.
The target in assay [2] is T1, D(1A) dopamine receptor. Nature of the assay: D1R Functional Assay. As to conditions: pH 7.5.

Several values for one entry are separate records, joined by “and”; a condition that tells them apart may be missing. Equal entries are not always repeated.

In general, Ki refers to a dissociation constant, usually derived from enzyme kinetics or from competition with a known ligand. Low values mean tighter binding, high ones weaker binding. In general, IC50 refers to the concentration needed to halve the response being measured. High values mean weaker potency in that assay, low ones greater potency in that assay.

Sequence of D(3) dopamine receptor (P35462 as listed by the source): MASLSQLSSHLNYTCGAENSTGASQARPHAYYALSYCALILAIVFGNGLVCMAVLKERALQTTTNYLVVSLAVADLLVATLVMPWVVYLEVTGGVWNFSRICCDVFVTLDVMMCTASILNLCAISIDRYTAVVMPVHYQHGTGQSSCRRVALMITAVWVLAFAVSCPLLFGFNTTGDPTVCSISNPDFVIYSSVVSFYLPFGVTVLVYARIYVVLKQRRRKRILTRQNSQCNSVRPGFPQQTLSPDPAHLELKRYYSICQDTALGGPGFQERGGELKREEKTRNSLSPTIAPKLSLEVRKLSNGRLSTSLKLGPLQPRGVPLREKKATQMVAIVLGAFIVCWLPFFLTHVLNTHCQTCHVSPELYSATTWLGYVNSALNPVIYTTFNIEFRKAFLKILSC
Sequence of D(2) dopamine receptor (P14416 whole entry): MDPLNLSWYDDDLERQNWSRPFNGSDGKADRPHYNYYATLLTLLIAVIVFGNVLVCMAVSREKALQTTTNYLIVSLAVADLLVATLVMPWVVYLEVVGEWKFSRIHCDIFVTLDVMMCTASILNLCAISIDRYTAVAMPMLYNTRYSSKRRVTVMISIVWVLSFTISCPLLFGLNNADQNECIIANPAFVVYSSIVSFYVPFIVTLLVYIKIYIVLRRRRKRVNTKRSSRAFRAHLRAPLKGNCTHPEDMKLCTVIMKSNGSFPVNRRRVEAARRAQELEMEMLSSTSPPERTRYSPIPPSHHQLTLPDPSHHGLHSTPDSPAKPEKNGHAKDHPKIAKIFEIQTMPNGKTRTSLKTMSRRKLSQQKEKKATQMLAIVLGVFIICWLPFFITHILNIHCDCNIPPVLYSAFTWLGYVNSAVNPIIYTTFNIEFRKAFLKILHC
T1 sequence (P21728 whole entry): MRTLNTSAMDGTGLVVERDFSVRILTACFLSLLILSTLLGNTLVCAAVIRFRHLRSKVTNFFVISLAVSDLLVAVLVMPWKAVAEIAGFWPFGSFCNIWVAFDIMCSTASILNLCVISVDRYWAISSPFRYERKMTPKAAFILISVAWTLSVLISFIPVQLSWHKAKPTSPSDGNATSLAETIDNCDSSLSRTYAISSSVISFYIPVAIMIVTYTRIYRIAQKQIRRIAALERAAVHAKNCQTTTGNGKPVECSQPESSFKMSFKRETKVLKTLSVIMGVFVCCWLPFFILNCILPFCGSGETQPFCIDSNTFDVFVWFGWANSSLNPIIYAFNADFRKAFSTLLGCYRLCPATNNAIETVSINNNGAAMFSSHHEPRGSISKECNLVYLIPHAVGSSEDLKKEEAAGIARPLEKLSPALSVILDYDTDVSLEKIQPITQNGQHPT

With `COc1cc2c(cc1OC)C1Cc3ccc(OC)c(OC)c3CCN1CC2` (stereo not drawn) [2,3,10,11-tetramethoxy-5,6,8,9,14,14a-hexahydrobenzo[4,5]azepino[2,1-a]isoquinoline (15c)], the Ki at D(3) dopamine receptor is 22 nM; at D(2) dopamine receptor, 29.8 nM; at D(1A) dopamine receptor [1] it was 57.3 nM.
The matching figures for `COc1cc2c(cc1OC)CC1c3cc(OC)c(OC)cc3CCN1CC2` (stereo not drawn) [2,3,11,12-tetramethoxy-5,6,8,9,14,14a-hexahydrobenzo[4,5]azepino[2,1-a]isoquinoline (15a)]: 13.3 nM, 26.5 nM and 33.9 nM.
With `COc1cc2c(cc1O)C1Cc3ccc(OC)c(OC)c3CCN1CC2` (stereo not drawn) [3,10,11-trimethoxy-5,6,8,9,14,14a-hexahydrobenzo[4,5]azepino[2,1-a]isoquinolin-2-ol (15d)], the figures for the Ki on D(3) dopamine receptor, on D(2) dopamine receptor and at D(1A) dopamine receptor [1] were 284 nM, 84 nM and 30.3 nM, respectively. Further, the IC50 against D(1A) dopamine receptor [2] was 33500 nM.
As for `COc1cc2c(cc1OC(C)=O)C1Cc3ccc(OC)c(OC)c3CCN1CC2` (stereo not drawn) [3,10,11-trimethoxy-5,6,8,9,14,14a-hexahydrobenzo[4,5]azepino[2,1-a]isoquinolin-2-ylacetate (19)], the Ki at D(3) dopamine receptor turned out to be 73.7 nM; at D(2) dopamine receptor it was 52 nM; on D(1A) dopamine receptor [1], 474 nM.
The matching figures for `COc1cc2c(cc1O)C1Cc3cc(OC)c(OC)cc3CCN1CC2` (stereo not drawn) [3,11,12-trimethoxy-5,6,8,9,14,14a-hexahydrobenzo[4,5]azepino[2,1-a]isoquinolin-2-ol (15b)]: 39.2 nM, 6.96 nM and 69.1 nM.
On to `COc1cc2c(cc1O)C1Cc3ccc(OC)c(O)c3CCN1CC2` (stereo not drawn) [3,11-dimethoxy-5,6,8,9,14,14a-hexahydrobenzo[4,5]azepino[2,1-a]isoquinoline-2,10-diol ((+)-15e)], for which the inhibition constant (Ki) at D(2) dopamine receptor was 36.6 nM and 34.4 nM and 58.3 nM. The molecule further gave an IC50 on D(1A) dopamine receptor [2] of 140 nM.
On to `Oc1cc2c(cc1O)C1Cc3ccc(O)c(O)c3CCN1CC2` (stereo not drawn) [5,6,8,9,14,14a-hexahydrobenzo[4,5]azepino[2,1-a]isoquinoline-2,3,10,11-tetraol (18)], for which the Ki on D(3) dopamine receptor was determined as 471 nM; at D(2) dopamine receptor it was 72.2 nM; on D(1A) dopamine receptor [1], 33.7 nM. For the same molecule, the IC50 at D(1A) dopamine receptor [2] is 115000 nM.
On to `COc1ccc2c(c1OC)CCN1CCc3cc4c(cc3C1C2)OCO4` (stereo not drawn) [Hexahydrobenzo[4,5]azepino[2,1-a]isoquinoline, 16], for which the Ki at D(3) dopamine receptor amounted to 27.3 nM; at D(2) dopamine receptor it was 4.26 nM; at D(1A) dopamine receptor [1] it was 60.3 nM.
Take `COc1ccc2c(c1OC)CCN1CCc3cc(O)c(O)cc3C1C2` (stereo not drawn) [Hexahydrobenzo[4,5]azepino[2,1-a]isoquinoline, 17]: the Ki at D(3) dopamine receptor came to 61.2 nM; on D(2) dopamine receptor, 39.2 nM; on D(1A) dopamine receptor [1], 220 nM.

The record behind these values is BindingDB's records for doi:10.1111/cbdd.12796 (Fudan University, 2016).
